Measurements from patent US11766470B2, “Manufacture, formulation and dosing of apraglutide” (VectivBio AG, priority 2020, dated 2023).
Where “and” joins values, the source holds several entries; their conditions need not be identical. Identical values can stand only once. Like-named read-outs stand apart in the source and are kept apart here. Square brackets hold non-standard residues; d marks the D form. Peptide text beside a SMILES is read from it. ξ: configuration not given here. Ile(3ξ) = CCC(C)[C@H](N)C(=O)O; Thr(3ξ) = CC(O)[C@H](N)C(=O)O; Nle = CCCC[C@H](N)C(=O)O

Assays:
[1] = Plasma concentration of apraglutide (LC-MS/MS) in Phase 2 SBS-IF trial (Example 5); format: in vivo; conditions: human; for level at 168 h: sc, read-out: Mean plasma concentration before the second dose (Ctrough)
Source text: Blood samples for analysis of plasma concentration of apraglutide and fasting plasma L-citrulline, a marker of enterocyte mass, were collected at baseline, during first and second treatment injection, four days after first treatment injection and at the end of treatment.
Apraglutide and L-citrulline were quantified using a validated LC-MS-based method. For apraglutide, the analytical method used solid-phase extraction purification of the intact apraglutide molecule and its internal standard. The compounds were identified and quantified using reversed-phase HPLC with MS/MS detection using an AB Sciex API 5000 quadrupole mass spectrometer. For samples below the limit of quantification of 5.00 ng/mL, compounds were identified and quantified using reversed-phase UHPLC with MS/MS detection using an AB Sciex API 5500 quadrupole mass spectrometer. For L-citrulline, the analytical method used protein precipitation extraction of L-Citrulline and its internal standard. The compounds were identified and quantified using Hilic HPLC with MS/MS detection using an AB Sciex API 5000 quadrupole mass spectrometer.

[2] = tested on: patients with SBS-IF or SBS-II; assay: Phase 2 open-label metabolic balance trial in SBS-IF and SBS-II patients (Example 6): 72-hour metabolic balance, body composition, plasma L-citrulline; format: in vivo, human; conditions: 5 mg once weekly
Experimental: Treatment with glucagon-like peptide-2 (GLP-2) analogs promotes intestinal adaptation in patients with short bowel syndrome (SBS). Apraglutide is a novel long-acting GLP-2 analog designed to enable once weekly dosing. This Phase 2 trial investigated the safety and efficacy of once weekly 5 mg apraglutide in patients with SBS intestinal failure (SBS-IF) and SBS intestinal insufficiency (SBS-II). In this open-label trial, 8 adult patients with SBS-IF (n=4) or SBS-II (n=4) and a fecal wet weight of >1500 g/day were treated with once weekly subcutaneous 5 mg apraglutide for 4 weeks. Safety was the primary endpoint. As secondary endpoints changes were examined from baseline in intestinal absorption of wet weight, energy (measured by bomb calorimetry) and electrolytes as well as fecal wet weight and urine production using 72-hour metabolic balance studies. Common treatment-related adverse events were consistent with the physiological effect of GLP-2 and included reduced stoma output (n=6), stoma complication (n=6), nausea (n=5), flatulence (n=4), polyuria (n=3) and abdominal pain (n=3).
A total of nine adult patients (aged ≥18 to ≤80 years) with SBS were screened, eight of whom enrolled in the trial: four patients had SBS-II and four patients had SBS-IF. Both subgroups of patients were included to investigate the safety and efficacy of apraglutide across the disease spectrum. Patient eligibility was assessed during a screening visit. Main inclusion criteria were SBS secondary to surgical resection of the small intestine with or without colon; at least six months since last surgical bowel resection; and a severe degree of malabsorption, defined as a fecal wet weight output≥1,500 g/day and a urine volume production<2000 mL/day.
Fecal output and urine volume production were confirmed during baseline examinations. Patients were excluded if they had clinical signs of active inflammatory bowel disease, a history of cancer within five years or an inadequate hepatic-, kidney- or heart function.
The contents of the buckets were weighed, processed intro dry matter, and analyzed as previously described: energy by bomb calorimetry, nitrogen by Kjeldahl's method, lipid by a modified Van de Kamer titration technique, carbohydrate by Englyst's method, sodium and potassium by flame photometry and calcium and magnesium by atomic absorption spectrometry. A 24-hour average was calculated based on the three 24-hour periods. Absolute changes were calculated as the difference between the baseline and the post-treatment value. Relative changes were calculated as absolute changes divided by baseline values multiplied by 100.
Body weight was measured using a levelled platform scale. Body composition was measured by dual-energy x-ray absorptiometry (Norland XR-36 DXA densitometer, Norland, Ford Atkinson, WI, USA) at baseline and post-treatment.
Blood samples for analysis of the plasma concentration of apraglutide and plasma concentration of fasting L-citrulline, a marker of enterocyte mass, were collected at baseline, during first and second injection (pre-dose and at sequential timepoints), four days after first injection and at the end of treatment. Blood sampling for apraglutide pharmacokinetics was also performed after the fourth and last injection covering 96 hours. […] Blood samples for anti-apraglutide antibodies were collected at baseline, at the end of treatment and at the 4-6 weeks follow-up visit. All eight patients tested negative for anti-apraglutide antibodies at baseline.
The primary endpoint of this trial was safety. Secondary endpoints were absolute and relative changes from baseline in dietary intake, fecal excretion and absorption of wet weight, energy, macronutrients and electrolytes, urine production, urine electrolyte excretion, body weight, body composition, bone mineral content, plasma L-citrulline as well as pharmacokinetic profiles. […]

[3] = human, in vivo
Experimental: 23 healthy adult volunteers received 6 weekly subcutaneous doses of apraglutide (1, 5, or 10 mg) or placebo and were followed for a further 6 weeks after the last dose. Blood collections were controlled for diet, lifestyle, and diurnal effects. […] PK data underwent non-compartmental analysis and PD data were analyzed by ANCOVA.
As with citrulline, a statistical steady-state analysis per dose level was performed for apraglutide using Helmert's approach.

[4] = cited from earlier work
[5] = comparison with other GLP-2 analogs

CCCC[C@H](NC(=O)[C@H](CCC(=O)O)NC(=O)[C@H](CC(=O)O)NC(=O)[C@H](CO)NC(=O)[C@H](Cc1ccccc1)NC(=O)[C@H](CO)NC(=O)CNC(=O)[C@H](CC(=O)O)NC(=O)CNC(=O)[C@@H](N)Cc1c[nH]cn1)C(=O)N[C@H](Cc1ccccc1)C(=O)N[C@H](C(=O)N[C@H](C(=O)N[C@@H](CC(C)C)C(=O)N[C@@H](CC(=O)O)C(=O)N[C@@H](CC(C)C)C(=O)N[C@@H](CC(C)C)C(=O)N[C@@H](C)C(=O)N[C@@H](C)C(=O)N[C@@H](CCCNC(=N)N)C(=O)N[C@@H](CC(=O)O)C(=O)N[C@@H](Cc1ccccc1)C(=O)N[C@H](C(=O)N[C@@H](CC(N)=O)C(=O)N[C@@H](Cc1c[nH]c2ccccc12)C(=O)N[C@@H](CC(C)C)C(=O)N[C@H](C(=O)N[C@@H](CCC(N)=O)C(=O)N[C@H](C(=O)N[C@@H](CCCCN)C(=O)N[C@H](C(=O)N[C@H](C(=O)N[C@@H](CC(=O)O)C(N)=O)C(C)O)C(C)CC)C(C)O)C(C)CC)C(C)CC)C(C)CC)C(C)O (stereo partly drawn) [apraglutide, L-histidyl-glycyl-L-aspartyl-glycyl-L-seryl-L-phenylalanyl-L-seryl-L-aspartyl-L-glutamyl-L-norleucyl-D-phenylalanyl-L-threonyl-Lisoleucyl-L-leucyl-L-aspartyl-L-leucyl-L-leucyl-L-alanyl-L-alanyl-L-arginyl-L-aspartyl-L-phenylalanyl-L-isoleucyl-L-asparaginyl-Ltryptophanyl-L-leucyl-L-isoleucyl-L-glutaminyl-L-threonyl-L-lysyl-L-isoleucyl-L-threonyl-Laspartic acid amide] (H-HGDGSFSDE[Nle][dF][Thr(3ξ)][Ile(3ξ)]LDLLAARDF[Ile(3ξ)]NWL[Ile(3ξ)]Q[Thr(3ξ)]K[Ile(3ξ)][Thr(3ξ)]D-NH2)
Tmax ([1]; SBS-IF patients, SC, read-out: Time of maximum mean plasma concentration after dosing): 72 h
level at 168 h ([1]; 5 mg treatment period): 4.5 ng/mL
level at 168 h ([1]; 10 mg treatment period): 8.9 ng/mL
Body weight increase from baseline ([2]; 4 weeks): 1.8 kg
Bone mineral content change from baseline ([2]; 4 weeks): -20 g
Calcium, absorption, change from baseline ([2]; 4 weeks): 11 (−13 to 35); mmol/day
Calcium, dietary intake, change from baseline ([2]; 4 weeks): −2 (−5 to 2); mmol/day
Calcium, fecal output, change from baseline ([2]; 4 weeks): −13 (−36 to 11); mmol/day
Calcium, urine excretion, change from baseline ([2]; 4 weeks): 0 (−1 to 1) mmol/day
Carbohydrate, absorption, change from baseline ([2]; 4 weeks): 518 (112 to 924); kJ/day
Carbohydrate, dietary intake, change from baseline ([2]; 4 weeks): 154 (−268 to 575); kJ/day
Carbohydrate, fecal output, change from baseline ([2]; 4 weeks): −365 (−772 to 43); kJ/day
Energy, dietary intake, change from baseline ([2]; 4 weeks): 154 (−1,006 to 1,314); kJ/day
Fat mass decrease from baseline ([2]; 4 weeks): 1.1 kg
Lean body mass increase from baseline ([2]; 4 weeks): 1.7 kg
Lipid, absorption, change from baseline ([2]; 4 weeks): 376 (61 to 691); kJ/day
Lipid, dietary intake, change from baseline ([2]; 4 weeks): 67 (−638 to 771); kJ/day
Lipid, fecal output, change from baseline ([2]; 4 weeks): −309 (−969 to 351) kJ/day
Magnesium, absorption, change from baseline ([2]; 4 weeks): 0 (−9 to 9); mmol/day
Magnesium, dietary intake, change from baseline ([2]; 4 weeks): 1 (−2 to 3); mmol/day
Magnesium, fecal output, change from baseline ([2]; 4 weeks): 0 (−9 to 9); mmol/day
Magnesium, urine excretion, change from baseline ([2]; 4 weeks): 1 (−1 to 2), mmol/day
Plasma L-citrulline, absolute increase from baseline ([2]; 4 weeks): 15.2 µmol/L
Plasma L-citrulline, relative increase from baseline ([2]; 4 weeks): 66%
Potassium, absorption, change from baseline ([2]; 4 weeks): 18 (4 to 32; p < 0.05) mmol/day and 18 (4 to 32); mmol/day
Potassium, dietary intake, change from baseline ([2]; 4 weeks): 4 (−5 to 12); mmol/day
Potassium, fecal output, change from baseline ([2]; 4 weeks): −15 (−32 to 3); mmol/day
Potassium, urine excretion, change from baseline ([2]; 4 weeks): 13 (6 to 20); mmol/day
Protein, absorption, change from baseline ([2]; 4 weeks): 104 (−205 to 412); kJ/day
Protein, dietary intake, change from baseline ([2]; 4 weeks): −41 (−274 to 191); kJ/day
Protein, fecal output, change from baseline ([2]; 4 weeks): −145 (−497 to 207); kJ/day
Sodium, absorption, change from baseline ([2]; 4 weeks): 38 (3 to 74; p < 0.05) mmol/day and 38 (3 to 74); mmol/day
Sodium, dietary intake, change from baseline ([2]; 4 weeks): −5 (−30 to 21); mmol/day
Sodium, fecal output, change from baseline ([2]; 4 weeks): −43 (−92 to 6); mmol/day
Sodium, urine excretion, change from baseline ([2]; 4 weeks): 27 (5 to 49); mmol/day
Wet weight, absorption, change from baseline ([2]; 4 weeks): 741 (194 to 1287; p < 0.05) g/day and 741 (194 to 1,287); g/day
Wet weight, dietary intake, change from baseline ([2]; 4 weeks): 61 (−84.0 to 207); g/day
Wet weight, fecal output, change from baseline ([2]; 4 weeks): −680 (−1200 to −159; p < 0.05) ^ g/day and −680 (−1,200 to −159); g/day
Wet weight, urine (urine production), change from baseline ([2]; 4 weeks): 560 (72 to 1048; p < 0.05) g/day and 560 (72 to 1,048); g/day
Energy, absorption, change from baseline ([2]; 4 weeks, bomb calorimetry): 1,095 kJ/day
Potassium, absorption, change from baseline ([2]; 4 weeks, listed as Apraglutide): 18 mmol/day
Potassium, urine excretion, change from baseline ([2]; 4 weeks, listed as Apraglutide): 13 mmol/day
Sodium, absorption, change from baseline ([2]; 4 weeks, listed as Apraglutide): 38 mmol/day
Sodium, urine excretion, change from baseline ([2]; 4 weeks, listed as Apraglutide): 27 mmol/day
Wet weight, absorption, change from baseline ([2]; 4 weeks, listed as Apraglutide): 741 g/day
Wet weight, fecal output, change from baseline ([2]; 4 weeks, listed as Apraglutide): -680 g/day
Wet weight, urine (urine production), change from baseline ([2]; 4 weeks, listed as Apraglutide): 560 g/day
Change from baseline increase in urinary input [2, 5]: 140.1%
Change in baseline in energy absorption [2, 5]: 1,074 kj/day
Change in baseline in wet weight absorption [2, 5]: 760.4 g/day
Quantifiable concentration in the last pharmacokinetic sample (2 weeks after last dose) [3]: up to 4.46 ng/mL
CL/F, arithmetic mean ± SD ([3]; 5 mg): 16.480 L/day
CL/F, arithmetic mean ± SD ([3]; 10 mg): 20.747 L/day
Intestinotrophic effect in animal models, in words [4]: promoted increase in intestinal length and weight, villus height and crypt depth
